Tests used:
[1] = system: exorbital lacrimal gland-removed rat dry eye model; assay: Dry eye syndrome (dry eye) model evaluation test; assay type: in vivo; conditions: eye drop 5 μL four times a day
[2] = system: exorbital lacrimal gland-removed rat dry eye model; assay: Dry eye syndrome (dry eye) model evaluation test; assay type: in vivo; conditions: eye drop 5 μL four times a day; remark: listed apart in the source
Experimental: In order to evaluate the treatment effect of the present compounds on corneal disorder accompanied by dry eye syndrome (dry eye), a treatment effect on corneal disorder in an exorbital lacrimal gland-removed rat dry eye model was investigated. This model was prepared in accordance with the method of Fujihara, et al. (Invest. Ophthalmol. Vis. Sci., 42(1): 96-100 (2001)). Incidentally, this effect was scored according to the method of Murakami et al. (New Ophthalmologist 21(1): 87-90 (2004)), the extent of corneal disorder was scored and the improvement ratio was calculated from the corneal disorder score of the base agent administered group (control group), the corneal disorder score of the test compound administered group and the corneal disorder score of the normal rat.
A base agent containing a general additive(s) was added to the test compound to prepare test compound suspensions with 0.03% (W/V) and 0.1% (W/V). In addition, a base agent was added to the commercially available drug A to prepare a diluted solution with 0.05% (V/V).
• 1) By using male SD rats, somnopentyl was administered to the rats to apply them general anesthesia, exorbital lacrimal glands were removed, and corneal disorder was induced over 8 weeks thereafter. • 2) The test compound suspension was eye-dropped (instillation dose: 5 μL/time) to both eyes four times a day for 14 days. Incidentally, the base agent was similarly eye-dropped to the administered group (control group), and the commercially available drug A and its diluted solution were similarly eye-dropped. • 3) Fourteen days after the start of eye dropping, the cornea was stained with fluorescein. For each of the upper part, the middle part and the lower part of the cornea, scores of the degree of staining with fluorescein were determined according to the following criteria, and an average value of the total of the scores was calculated. Incidentally, 0.5 was set as an intermediate value between each score of 0, 1, 2 and 3. <<Judgement Standard>>
1: Dyeing is sparse, and the dyed portions of each dot are separated
2: Dyeing is a middle degree and part of the dotted dyed portions is adjacent
3: Dyeing is dense, and the dyed portions of each point are almost adjacent
(Calculation Formula) Corneal disorder improvement ratio (%) of the test compound administered group=(Ao−Ax)/(Ao−An)×100 • Ao: Average value of corneal disorder score of the base agent administered group (control group) • Ax: Average value of corneal disorder score of the test compound administered group • An: Average value of corneal disorder score of normal rat (Test Result and Consideration)

[3] = system: carrageenin-caused conjunctivitis model of rats; assay: Conjunctivitis model evaluation test; assay type: in vivo, rat; conditions: 1% suspension, eye dropped 5 μL five times from 1 hour before to 3 hours after induction
Experimental: In order to evaluate an anti-inflammatory action of the present compound to conjunctivitis, an inhibitory effect on edema formation in a carrageenin-caused conjunctivitis model of rats was investigated. Incidentally, this effect was evaluated by calculating an edema formation inhibitory ratio from a weight of the edema in a base agent administered group (control group) and a weight of the edema in the test compound administered group.
A base agent containing a general additive(s) was added to the test compound to prepare test compound suspensions with 0.001% (W/V), 0.003% (W/V), 0.01% (W/V) and 1% (W/V). […]
Four hours after induction, rats under general anesthesia were sacrificed by decapitation method, conjunctival edema areas of both eyes were removed, and the weight of each was measured. The edema formation inhibitory ratio was calculated from the average value of the weight of the edema.
Based on the average value of the weight of the edema of the base agent administered group (control group), the edema formation inhibitory ratio of the test compound suspension eye drop group was calculated by the following calculation formula. […]

Row | Compound | Corneal disorder improvement ratio (%) After 7 days eye dropping ([1]; 0.03%) [%] | Corneal disorder improvement ratio (%) After 7 days eye dropping ([1]; 0.1%) [%] | Corneal disorder improvement ratio (%) After 14 days eye dropping ([2]; 0.03%) [%] | Corneal disorder improvement ratio (%) After 14 days eye dropping ([2]; 0.1%) [%] | Edema formation inhibitory ratio (%) [3] [%]
1 | COc1cc(OC[C@H](C)OC(=O)CN(C)C)ccc1-c1ccc2c(c1COc1cc(F)ccc1C)N(C)C(=O)C(C)(C)N2 [Compound 11-1, (S)-7-[4-[2-(N,N-dimethylaminoacetoxy)propyl]oxy-2-methoxyphenyl]-8-(5-fluoro-2-methylphenoxymethyl)-1,3,3-trimethyl-3,4-dihydro-1H-quinoxalin-2-one] | 35 | 44 | 33 | 64 | 
2 | COc1ccc(O)cc1-c1ccc2c(c1COc1cc(F)ccc1C)N(C)C(=O)C(C)(C)N2 [Control compound C, 8-(5-fluoro-2-methylphenoxymethyl)-7-(5-hydroxy-2-methoxyphenyl)-1,3,3-trimethyl-3,4-dihydro-1H-quinoxalin-2-one] |  |  |  |  | 14

Source: patent US10189796B2, “[4-(1,3,3-trimethyl-2-oxo-3,4-dihydro-1H-quinoxalin-7-yl)phenoxy]ethyloxy compound or salt thereof” (SANTEN PHARMACEUTICAL CO., LTD., priority 2015, dated 2019)
